Counter-ions that a name gives are not always drawn. Like-named read-outs stand apart in the source and are kept apart here.
What was measured:
[1] = Solid-state stability under 40° C./75% RH for one week; format: physicochemical
[2] = Hygroscopicity (DVS tests); format: physicochemical; settings: for Hygroscopicity (%): water uptake at 25° C./80% RH
[3] = Kinetic solubility in pH 2, 5, and 7 buffers; format: physicochemical; settings: for Kinetic Solubility: in pH 2, 5 and 7 buffers, compared with freebase Form A
ALK5 [4] = target: T1, ALK5 (Homo sapiens, UniProt P36897); assay: ALK5 nanobret assay in HEK293 cells transfected with ALK5-Nanoluc fusion; format: binding; settings: luciferase tagged ALK5, fluorescent tracer competition (BRET), structure (I) tested as HCl salt
T1 sequence (P36897 34-503): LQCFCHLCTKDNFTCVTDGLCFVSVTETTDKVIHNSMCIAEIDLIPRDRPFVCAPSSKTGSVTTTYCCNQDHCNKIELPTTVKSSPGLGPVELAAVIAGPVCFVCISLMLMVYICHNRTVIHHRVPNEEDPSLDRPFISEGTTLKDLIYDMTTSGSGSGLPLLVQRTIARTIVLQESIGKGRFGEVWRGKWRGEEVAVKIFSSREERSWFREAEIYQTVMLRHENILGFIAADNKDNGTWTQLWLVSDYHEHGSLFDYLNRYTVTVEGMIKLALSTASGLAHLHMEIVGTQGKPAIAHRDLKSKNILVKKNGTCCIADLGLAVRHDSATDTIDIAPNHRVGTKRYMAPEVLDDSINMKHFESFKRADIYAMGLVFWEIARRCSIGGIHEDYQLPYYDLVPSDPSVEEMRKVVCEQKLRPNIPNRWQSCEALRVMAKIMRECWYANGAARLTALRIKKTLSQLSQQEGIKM
Description: An HCl salt of the compound of structure (I) was tested in an ALK5 nanobret assay. HEK293 cells were transfected with the ALK5-Nanoluc fusion (Promega) vector, which encodes for a luciferase tagged form of ALK5. For testing of the compound of structure (I), transfected cells were pretreated with drug. Subsequently, a fluorescent tracer was added and the fluorescence signal was measured.
In this assay, luminescence develops via the nanoluciferase tagged ALK5, which can transfer signal via bioluminescence energy transfer (BRET) to the tracer, yielding a fluorescent signal.

ALK5 [5] = target: T1, ALK5; assay: Rhabdomyosarcoma (RD) cell SMAD reporter (RDSR) assay; format: cell-based; set-up: The RD cell line was transfected with the pGL4.48(luc2P/SBE/Hygro) vector; endogenous in cells; host or cells: RD rhabdomyosarcoma cells stably transfected with the SBE-luciferase reporter only; settings: RD cells transfected with pGL4.48(luc2P/SBE/Hygro) vector, pretreated with drug, induced with 50 pg/mL TGFβ1 for up to 24 hours; structure (I) tested as HCl salt

Compound | Solid-state Stability [1] | form change after DVS tests [2] | Hygroscopicity (%) [2] | Kinetic Solubility [3] | Kinetic Solubility ([3]; listed as HCl Form A) | disproportionation ([3]; pH 7 buffer) | Solid-state Stability ([1]; listed as HCl salt Form A) | Hygroscopicity ([2]; class based on water uptake at 25° C./80% RH) | IC50 (ALK5 [4]) | IC50 (ALK5 [5])
COc1cc(Nc2nccc(Nc3cccnc3-c3ccccn3)n2)ccc1N1CCN(C)CC1 [Freebase Form A] | Good physicochemical properties under | no form change | (0.60) % |  |  |  |  |  |  | 
COc1cc(Nc2nccc(Nc3cccnc3-c3ccccn3)n2)ccc1N1CCN(C)CC1 [HCl Salt Form A] | Good physicochemical properties under | no form change | (0.86) % | increased solubility | HCl Form A showed increased solubility | disproportionation was observed | good physicochemical properties | Slightly hygroscopic |  | 
COc1cc(Nc2nccc(Nc3cccnc3-c3ccccn3)n2)ccc1N1CCN(C)CC1 [compound of structure (I)] |  |  |  |  |  |  |  |  | 2300 nM | 309 nM
